Like-named read-outs stand apart in the source and are kept apart here.
Key:
hBLT1 = biological target: T1, hBLT1 (Homo sapiens, UniProt Q15722); assay: [3H]-LTB4 binding assay in hBLT1 containing membranes; details: [3H]-LTB4 displacement, hBLT1/CHO-K1 membranes, Ki = IC50/2.7
T1 construct: expressed in transfected cells; membrane preparation
Procedure: [^3H]-LTB4 and known BLT1 and BLT2 antagonists are used to generate LTB4 displacement curves and IC50 values for compounds of the present invention. Receptor inhibition by compounds of the present invention is determined relative to BLT1 inhibitor and BLT2 inhibitor reference molecules to obtain percent efficacies.
hBLT1 Test Compound Preparations: For hBLT1 assays, test compounds are prepared in DMSO to make up a 10 mM stock solution. […]
hBLT1/CHO-K1 Stable Xcell Line Preparations: Human BLT1 receptor DNA (National Center for Biotechnology Information (NCBI), Reference Sequence NM_181657) is synthesized and cloned into expression vector pcDNA3.1/Hygro(+) (Invitrogen V87020). […] Single clones are isolated and screened for BLT1 expression and function using Western Blot analysis and Fluorometric Imaging Plate Reader (FLIPR®) calcium release assay. […]
[^3H]-LTB4 (30 μL of 1.3 nM, PerkinElmer NET-852) is aliquoted into a 96-well Millipore Multiscreen-filter binding plate (catalogue number MAFBNOB10) which is pre-wetted with Buffer A (50 mM HEPES pH 7.4, 10 mM MgCl2, 10 mM NaCl, 10% glycerol, 1% BSA). […] The plate is allowed to sit for 16 h and then read on a Packard Instrument Company Topcount® for 1 min. […] The IC50s are converted to Ki values by dividing by 2.7 (previously calculated). […]

[1] = system: LTB4-induced CD11b expression in neutrophils; assay: CD11b assay, mouse whole blood; format: cell-based; details: Neutrophil, 25 nM LTB4
Procedure: EDTA anti-coagulated blood is collected from human donors or mice as before. For in vitro experiments, 8 or 10 point dose response curves of test compounds are assayed at final concentrations of 78 nM-10 μM or 20 nM-10 μM respectively. ½ serial dilutions of compound at 1000× of final assayed concentration are prepared in DMSO. Compound is then diluted to 10× in DPBS (DMSO concentration is now 1%). 10 μL of compound dilutions (at 10× in DPBS) or 1% DMSO in DPBS are added to wells of a 96 deep well plate. 90 μL whole blood is added and incubated 20 min at room temperature. 11 μL of 10×LTB4 (final concentration 25 nM for mouse or 10 nM human) is added and incubated at 37° C. for 30 min. The reaction is stopped by incubating the plate on ice for 5 min. The cells are stained with 10 μL anti-mouse or anti-human CD11b-PE (BD Biosciences diluted 1:20 for mouse and undiluted for human) and incubated on ice for 30 min in the dark (for mouse experiments, 10 μL anti-mouse LY6G-FITC antibody (BD Pharmingen) diluted 1:25 is added for the final 10 min) Red blood cells (RBCs) are lysed by adding 1.5 mL of 1×BD FACSlyse (BD Biosciences) and incubating for 10 min at room temperature in the dark. […] Data are analyzed with WinList software (Verity Software House) to determine mean and median fluorescent intensity values for CD11b-PE from neutrophil population.

T1 sequence (Q15722 whole entry): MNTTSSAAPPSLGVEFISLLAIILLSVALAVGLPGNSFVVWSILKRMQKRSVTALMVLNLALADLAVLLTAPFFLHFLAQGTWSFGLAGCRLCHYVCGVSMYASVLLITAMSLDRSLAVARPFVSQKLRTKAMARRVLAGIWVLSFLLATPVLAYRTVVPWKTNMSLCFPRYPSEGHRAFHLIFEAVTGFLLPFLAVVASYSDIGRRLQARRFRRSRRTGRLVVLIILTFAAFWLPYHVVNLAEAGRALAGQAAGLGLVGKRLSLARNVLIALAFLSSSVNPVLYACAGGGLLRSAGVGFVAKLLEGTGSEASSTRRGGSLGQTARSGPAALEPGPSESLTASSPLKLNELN

SMILES: CCCc1c(NC(=O)CC(C)(C)C(=O)[O-])cccc1OCCCOc1cc(O)c(-c2ccc(F)cc2)cc1CC.[Na+] [Example 2, Sodium 4-[[3-[3-[2-ethyl-4-(4-fluorophenyl)-5-hydroxy-phenoxy]propoxy]-2-propyl-phenyl]amino]-2,2-dimethyl-4-oxo-butanoate]
- Ki (hBLT1; read-out: absolute Ki): 5.5 nM
- Ki (hBLT1; read-out: relative Ki): 10.4 nM
- IC50 [1]: 1450 nM
